Tested on: HSV-1
Assay: HSV infection of Vero 76 cells, viral DNA detected by hybridization capture with chemiluminescence
Assay type: cell-based
Conditions: Human alphaherpesvirus 1; HSV-1 in Vero 76 cells, MOI=0.001, incubated 40–48 hours with test compound
Procedure: Vero 76 cells were maintained in MEM with Earle's salts, L-glutamine, 8% FBS (Hyclone, A-1111-L) and 100 units/mL Penicillin-100 μg/mL Streptomycin. For assay conditions, FBS was reduced to 2%. Cells are seeded into 96-well tissue culture plates at a density of 5×10^4 cells/well after being incubated for 45 min at 37° C. in the presence of HSV-1 or HSV-2 (MOI=0.001). Test compounds are added to the wells and the plates are incubated at 37° C. for 40–48 hours. Cell lysates are prepared as follows: media was removed and replaced with 150 μL/well 0.2 N NaOH with 1% Igepal CA 630 or NP-40. Plates were incubated up to 14 days at room temperature in a humidified chamber to prevent evaporation.
For the detection probe, a gel-purified, digoxigenin-labeled, 710-bp PCR fragment of the HSV UL-15 sequence was utilized. PCR conditions included 0.5 μM primers, 180 μM dTTP, 20 μM dUTP-digoxigenin (Boehringer Mannheim 1558706), 200 μM each of dATP, dCTP, and dGTP, 1×PCR Buffer II (Perkin Elmer), 2.5 mM MgCl2, 0.025 units/μL of AmpliTaq Gold polymerase (Perkin Elmer), and 5 ng of gel-purified HSV DNA per 100 μL Extension conditions were 10 min at 95° C., followed by 30 cycles of 95° C. for 1 min, 55° C. for 30 sec, and 72° C. for 2 min. The amplification was completed with a 10-min incubation at 72° C. Primers were selected to amplify a 728 bp probe spanning a section of the HSV1 UL15 open reading frame (nucleotides 249–977). Single-stranded transcripts were purified with Promega M13 Wizard kits. The final product was mixed 1:1 with a mixture of 6 M GuSCN, 100 mM EDTA and 200 μg/mL herring sperm DNA and stored at 4° C.
The capture DNA plasmid (HSV UL13 region in pUC) was linearized by cutting with XbaI, denatured for 15 min at 95° C. and diluted immediately into Reacti-Bind DNA Coating Solution (Pierce, 17250, diluted 1:1 with TE buffer, pH 8) at 1 ng/μL 75 μL/well were added to Corning (#3922 or 9690) white 96-well plates and incubated at room temperature for at least 4 hrs before washing twice with 300 μL/well 0.2×SSC/0.05% Tween-20 (SSC/T buffer). The plates were then incubated overnight at room temperature with 150 μL/well 0.2 N NaOH, 1% IGEPAL and 10 μg/mL herring sperm DNA.
Twenty-seven (27) μL of cell lysate was combined with 45 μL of hybridization solution (final concentration: 3M GuSCN, 50 mM EDTA, 100 μg/ml salmon sperm DNA, 5×Denhardt's solution, 0.25×APE, and 5 ng of the digoxigenin-labeled detection probe). APE is 1.5 M NH4-acetate, 0.15 M ammonium phosphate monobasic, and 5 mM EDTA adjusted to pH 6.0. Mineral oil (50 μL) was added to prevent evaporation. The hybridization plates were incubated at 95° C. for 10 minutes to denature the DNA, then incubated at 42° C. overnight. The wells were washed 6× with 300 μL/well SSC/T buffer then incubated with 75 μL/well anti-digoxigenin-HRP-conjugated antibody (Boehringer Mannheim 1207733, 1:5000 in TE) for 30 min at room temperature. The wells were washed 6× with 300 μL/well with PBS/0.05% Tween-20 before 75 μL/well SuperSignal LBA substrate (Pierce) was added. The plates were incubated at room temperature for 30 minutes and chemiluminescence was measured in a Wallac Victor reader.

SMILES	IC50
CCCCNc1cccn2c(-c3ccnc(NC4CCCC4)n3)c(-c3ccc(F)cc3)nc12 [Example 5, N-Butyl-3-[2-(cyclopentylamino)-4-pyrimidinyl]-2-(4-fluorophenyl)imidazo[1,2-α]pyridin-8-amine]	650 nM
COCCNc1cccn2c(-c3ccnc(NC4CCCC4)n3)c(-c3ccc(F)cc3)nc12 [Example 6, 3-[2-(Cyclopentylamino)-4-pyrimidinyl]-2-(4-fluorophenyl)-N-(2-methoxyethyl)imidazo[1,2-α]pyridin-8-amine]	340 nM
CNc1nccc(-c2c(-c3ccc(F)cc3)nc3c(Cl)cccn23)n1 [Example 7, 4-[8-Chloro-2-(4-fluorophenyl)imidazo[1,2-α]pyridin-3-yl]-N-methyl-2-pyrimidinamine]	2400 nM
CNc1nccc(-c2c(-c3ccc(F)cc3)nc3c(NC4CCCC4)cccn23)n1 [Example 8, N-Cyclopentyl-2-(4-fluorophenyl)-3-[2-(methylamino)-4-pyrimidinyl]imidazo[1,2-α]pyridin-8-amine]	> 5000 nM
COc1cccc(-c2nc3c(Cl)cccn3c2-c2ccnc(NC3CCCC3)n2)c1 [Example 15, 4-[8-Chloro-2-(3-methoxyphenyl)imidazo[1,2-α]pyridin-3-yl]-N-cyclopentyl-2-pyrimidinamine]	2300 nM
COc1cccc(-c2nc3c(NC4CCCC4)cccn3c2-c2ccnc(NC3CCCC3)n2)c1 [Example 16, N-Cyclopentyl-3-[2-(cyclopentylamino)-4-pyrimidinyl]-2-(3-methoxyphenyl)imidazo[1,2-α]pyridin-8-amine]	370 nM
Oc1cccc(-c2nc3c(NC4CCCC4)cccn3c2-c2ccnc(NC3CCCC3)n2)c1 [Example 17, 3-{8-(Cyclopentylamino)-3-[2-(cyclopentylamino)-4-pyrimidinyl]imidazo[1,2-α]pyridin-2-yl}phenol]	3100 nM
C=CCOc1cccc(-c2nc3c(NC4CCCC4)cccn3c2-c2ccnc(NC3CCCC3)n2)c1 [Example 18, 2-[3-(Allyloxy)phenyl]-N-cyclopentyl-3-[2-(cyclopentylamino)-4-pyrimidinyl]imidazo[1,2-α]pyridin-8-amine]	340 nM
COCCNc1cccn2c(-c3ccnc(NC4CCCC4)n3)c(-c3ccc(C)cc3)nc12 [Example 21, 3-[2-(Cyclopentylamino)-4-pyrimidinyl]-N-(2-methoxyethyl)-2-(4-methylphenyl)imidazo[1,2-α]pyridin-8-amine]	640 nM
Clc1cccn2c(-c3ccnc(NC4CC4)n3)c(-c3ccc4ccccc4c3)nc12 [Example 23, 4-[8-Chloro-2-(2-naphthyl)imidazo[1,2-α]pyridin-3-yl]-N-cyclopropyl-2-pyrimidinamine]	210 nM
c1ccc2cc(-c3nc4c(NC5CC5)cccn4c3-c3ccnc(NC4CC4)n3)ccc2c1 [Example 24, N-Cyclopropyl-3-[2-(cyclopropylamino)-4-pyrimidinyl]-2-(2-naphthyl)imidazo[1,2-α]pyridin-8-amine]	560 nM
O=[N+]([O-])c1cccc(-c2nc3c(Cl)cccn3c2-c2ccnc(NC3CCCC3)n2)c1 [Example 30, N-{4-[8-Chloro-2-(3-nitrophenyl)imidazo[1,2-α]pyridin-3-yl]-2-pyrimidinyl}-N-cyclopentylamine]	1600 nM

More lines, now with the values ahead:

IC50	SMILES
600 nM	Nc1cccn2c(-c3ccnc(NC4CCCC4)n3)c(-c3ccc(F)cc3)nc12 [Example 1, 3-[2-(Cyclopentylamino)-4-pyrimidinyl]-2-(4-fluorophenyl)imidazo[1,2-α]pyridin-8-amine]
3900 nM	Fc1ccc(-c2nc3c(Cl)cccn3c2-c2ccnc(NC3CCCC3)n2)cc1 [Example 2, 4-[8-Chloro-2-(4-fluorophenyl)imidazo[1,2-α]pyridin-3-yl]-N-cyclopentyl-2-pyrimidinamine]
400 nM	Fc1ccc(-c2nc3c(NC4CCCC4)cccn3c2-c2ccnc(NC3CCCC3)n2)cc1 [Example 3, N-Cyclopentyl-3-[2-(cyclopentylamino)-4-pyrimidinyl]-2-(4-fluorophenyl)imidazo[1,2-α]pyridin-8-amine]
1400 nM	Fc1ccc(-c2nc3c(N4CCCC4)cccn3c2-c2ccnc(NC3CCCC3)n2)cc1 [Example 4, N-Cyclopentyl-4-[2-(4-fluorophenyl)-8-(1-pyrrolidinyl)imidazo[1,2-α]pyridin-3-yl]-2-pyrimidinamine]
1200 nM	COc1ccc(-c2nc3c(Cl)cccn3c2-c2ccnc(NC3CCCC3)n2)cc1 [Example 9, 4-[8-Chloro-2-(4-methoxyphenyl)imidazo[1,2-α]pyridin-3-yl]-N-cyclopentyl-2-pyrimidinamine]
1750 nM	COc1ccc(-c2nc3c(NC4CCCC4)cccn3c2-c2ccnc(NC3CCCC3)n2)cc1 [Example 10, N-Cyclopentyl-3-[2-(cyclopentylamino)-4-pyrimidinyl]-2-(4-methoxyphenyl)imidazo[1,2-α]pyridin-8-amine]
3300 nM	Oc1ccc(-c2nc3c(NC4CCCC4)cccn3c2-c2ccnc(NC3CCCC3)n2)cc1 [Example 11, 4-{8-(Cyclopentylamino)-3-[2-(cyclopentylamino)-4-pyrimidinyl]imidazo[1,2-α]pyridin-2-yl}phenol]
3740 nM	Cc1ccc(-c2nc3c(Cl)cccn3c2-c2ccnc(NC3CCCC3)n2)cc1 [Example 19, 4-[8-Chloro-2-(4-methylphenyl)imidazo[1,2-α]pyridin-3-yl]-N-cyclopentyl-2-pyrimidinamine]
710 nM	Cc1ccc(-c2nc3c(NC4CCCC4)cccn3c2-c2ccnc(NC3CCCC3)n2)cc1 [Example 20, N-Cyclopentyl-3-[2-(cyclopentylamino)-4-pyrimidinyl]-2-(4-methylphenyl)imidazo[1,2-α]pyridin-8-amine]
840 nM	Cc1ccc(-c2nc3c(N4CCOCC4)cccn3c2-c2ccnc(NC3CCCC3)n2)cc1 [Example 22, N-Cyclopentyl-4-[2-(4-methylphenyl)-8-(4-morpholinyl)imidazo[1,2-α]pyridin-3-yl]-2-pyrimidinamine]
300 nM	N#Cc1ccc(-c2nc3c(Cl)cccn3c2-c2ccnc(NC3CCCC3)n2)cc1 [Example 25, 4-{8-Chloro-3-[2-(cyclopentylamino)-4-pyrimidinyl]imidazo[1,2-α]pyridin-2-yl}benzonitrile]
310 nM	N#Cc1ccc(-c2nc3c(NC4CCCC4)cccn3c2-c2ccnc(NC3CCCC3)n2)cc1 [Example 26, 4-{8-(Cyclopentylamino)-3-[2-(cyclopentylamino)-4-pyrimidinyl]imidazo[1,2-α]pyridin-2-yl}benzonitrile]
200 nM	N#Cc1ccc(-c2nc3c(N4CCOCC4)cccn3c2-c2ccnc(NC3CCCC3)n2)cc1 [Example 27, 4-[3-[2-(Cyclopentylamino)-4-pyrimidinyl]-8-(4-morpholinyl)-imidazo[1,2-α]pyridin-2-yl]benzonitrile]
6300 nM	NC(=O)c1ccc(-c2nc3c(N4CCOCC4)cccn3c2-c2ccnc(NC3CCCC3)n2)cc1 [Example 28, 4-[3-[2-(Cyclopentylamino)-4-pyrimidinyl]-8-(4-morpholinyl)imidazo[1,2-α]pyridin-2-yl]benzamide]
> 5000 nM	NC(=O)c1ccc(-c2nc3c(NC4CCCC4)cccn3c2-c2ccnc(NC3CCCC3)n2)cc1 [Example 29, 4-{8-(Cyclopentylamino)-3-[2-(cyclopentylamino)-4-pyrimidinyl]imidazo[1,2-α]pyridin-2-yl}benzamide]

Source: patent publication US7186714B2, “Imidazo[1,2-α]pyridine derivatives for the prophylaxis and treatment of herpes viral infections” (SmithKline Beecham Corporation, priority 2001, dated 2007)
